# Laboratory results from patent publication US9290453B2 (Merck Sharp & Dohme Corp., priority 2010, dated 2016).
# pKi: −log10 of the molar value.
# Biological target: T1, hCRTH2 (Homo sapiens, UniProt Q9Y5Y4)
# T1 construct: expressed in transfected cells; host or cells: HEK (human embryonic kidney) cells expressing hCRTH2
# T1 sequence (Q9Y5Y4 1-395): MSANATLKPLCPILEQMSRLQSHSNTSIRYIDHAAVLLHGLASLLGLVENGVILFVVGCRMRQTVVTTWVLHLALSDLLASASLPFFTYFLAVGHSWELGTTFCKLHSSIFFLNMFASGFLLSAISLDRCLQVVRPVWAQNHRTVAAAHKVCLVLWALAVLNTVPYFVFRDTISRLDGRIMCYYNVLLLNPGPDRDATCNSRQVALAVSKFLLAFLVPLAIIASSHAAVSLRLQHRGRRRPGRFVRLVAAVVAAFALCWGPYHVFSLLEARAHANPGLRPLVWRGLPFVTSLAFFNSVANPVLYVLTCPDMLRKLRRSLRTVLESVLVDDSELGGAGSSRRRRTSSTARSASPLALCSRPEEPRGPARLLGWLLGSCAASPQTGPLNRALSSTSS
# Assay: Radioligand Binding Assay A ([3H]PGD2 filtration binding, HEK-hCRTH2 membranes)
# Conditions: Table A, rated A-D
# Procedure: Radioligand binding assays were performed at room temperature in 50 mM Tris-HCl pH 7.4, 1 mM EDTA containing 2 mM MnCl2 and 3.0 nM [^3H]PGD2 (New England Nuclear, Boston, Mass.) (171 Ci mmol^−1), in a final volume of 0.2 ml. Competing ligands were diluted in dimethylsulfoxide (Me2SO) that was kept constant at 1% (v/v) of the final incubation volume. The reaction was initiated by the addition of 8-20 μg of membrane protein prepared from a human embryonic kidney (HEK)-hCRTH2 cell line. Total and non-specific binding were determined in the absence and the presence of 10 μM PGD2, respectively. Under these conditions, specific binding (total minus non-specific) of the radioligand to the receptor reached equilibrium within 50 min and was stable up to 180 min. The reaction was routinely conducted for 60 min at room temperature and terminated by rapid filtration through prewetted (0.3% polyethyleneimine) 96-well printed Filtermate™ (Wallac) using a Tomtec® harvester (Hamden, Conn.). After washing with cold buffer, the filter was dried for 2 minutes in microwave, and Meltilex Scintillator sheet (Wallac) was melted on for 2 min. The radioactivity was measured with Betaplate model 1205 (Wallac).
row,SMILES,pKi
1,"N#Cc1ccc([C@@H](NC(=O)c2ccc3nc(-c4ccc(F)cc4)c(CCCCC(=O)O)cc3c2)C(F)(F)F)cc1 [Compound 5Q, 6-[[[1(R)-(4-cyanophenyl)-2,2,2-trifluoroethyl]amino]carbonyl]-2-(4-fluorophenyl)-3-quinolinepentanoic acid]",7.70 to 8.68
2,"O=C(O)CCCCc1cc2cc(C(=O)N[C@H]3CCc4cc(Cl)ccc43)ccc2nc1-c1ccc(F)cc1 [Compound 5R, 6-[[(5-chloro-2,3-dihydro-1H-inden-1(S)-yl)amino]carbonyl]-2-(4-fluorophenyl)-3-quinolinepentanoic acid]",7.70 to 8.68
3,"O=C(O)CCCCc1cc2cc(C(=O)N[C@H]3CCCc4cc(Cl)ccc43)ccc2nc1-c1ccc(F)cc1 [Compound 5S, 6-[[(6-chloro-1,2,3,4-tetrahydro-1(S)-naphthalenyl)amino]carbonyl]-2-(4-fluorophenyl)-3-quinolinepentanoic acid]",7.70 to 8.68
4,N#Cc1ccc([C@H](NC(=O)c2ccc3nc(-c4ccc(F)cc4)c(CCCCC(=O)O)cc3c2)C(F)(F)F)cc1 [Compound 5T],6.70 to 7.70
5,"CN(Cc1ccc(Cl)cc1)C(=O)c1ccc2nc(-c3ccc(F)cc3)c(CCCCC(=O)O)cc2c1 [Compound 5U, 6-[[[(4-chlorophenyl)methyl]methylamino]carbonyl]-2-(4-fluorophenyl)-3-quinolinepentanoic acid]",7.70 to 8.68
6,"CN(Cc1ccc(C(F)(F)F)cc1)C(=O)c1ccc2nc(-c3ccc(F)cc3)c(CCCCC(=O)O)cc2c1 [Compound 5V, 2-(4-fluorophenyl)-6-[[methyl[[4-(trifluoromethyl)phenyl]methyl]amino]carbonyl]-3-quinolinepentanoic acid]",7.70 to 8.68
7,"CN(Cc1cccc(C(F)(F)F)c1)C(=O)c1ccc2nc(-c3ccc(F)cc3)c(CCCCC(=O)O)cc2c1 [Compound 5W, 2-(4-fluorophenyl)-6-[[methyl[[3-(trifluoromethyl)phenyl]methyl]amino]carbonyl]-3-quinolinepentanoic acid]",6.70 to 7.70
8,"C[C@@H](NC(=O)c1ccc2nc(-c3ccc(F)cc3)c(CCCCC(=O)O)cc2c1)c1cc(Cl)cc(Cl)c1 [Compound 5X, 6-[[[1(R)-(3,5-dichlorophenyl)ethyl]amino]carbonyl]-2-(4-fluorophenyl)-3-quinolinepentanoic acid]",7.70 to 8.68
9,"C[C@H](NC(=O)c1ccc2nc(-c3ccc(F)cc3)c(CCCCC(=O)O)cc2c1)c1cc(Cl)cc(Cl)c1 [Compound 5Y, 6-[[[1(S)-(3,5-dichlorophenyl)ethyl]amino]carbonyl]-2-(4-fluorophenyl)-3-quinolinepentanoic acid]",7.70 to 8.68
10,C[C@H](NC(=O)c1ccc2nc(-c3ccc(F)cc3)c(CCCCC(=O)O)cc2c1)c1ccc(Cl)cc1 [Compound 5i],7.70 to 8.68
11,"O=C(O)CCCCc1cc2cc(C(=O)N[C@@H]3CCc4cc(Cl)ccc43)ccc2nc1-c1ccc(F)cc1 [Compound 5o, 6-[[(5-chloro-2,3-dihydro-1H-inden-1(R)-yl)amino]carbonyl)-2-(4-fluorophenyl)-3-quinolinepentanoic acid]",7.70 to 8.68
12,"C[C@@H](NC(=O)c1cnc2nc(-c3ccc(F)cc3)c(CCCCC(=O)O)cc2c1)c1ccc(Cl)cc1 [Compound 6, 6-[[[1(R)-(4-chlorophenyl)ethyl]amino]carbonyl]-2-(4-fluorophenyl)-1,8-naphthyridine-3-pentanoic acid]",6.70 to 7.70

# Other lines, results leading:
row,pKi,SMILES
1,6.70 to 7.70,"C[C@@H](NC(=O)c1cnc2nc(-c3ccc(F)cc3)c(CCCCC(=O)O)cc2c1)c1ccc(F)cc1 [Compound 6D, 2-(4-fluorophenyl)-6-[[[1(R)-(4-fluorophenyl)ethyl]amino]carbonyl]-1,8-naphthyridine-3-pentanoic acid]"
2,7.70 to 8.68,"O=C(O)CCCCc1cc2cc(C(=O)N[C@@H]3CCc4cc(Cl)ccc43)cnc2nc1-c1ccc(F)cc1 [Compound 6E, 6-[[(5-chloro-2,3-dihydro-1H-inden-1(R)-yl)amino]carbonyl]-2-(4-fluorophenyl)-1,8-naphthyridine-3-pentanoic acid]"
3,6.70 to 7.70,"O=C(O)CCCCc1cc2cc(C(=O)N[C@@H]3CCc4ccc(F)cc43)cnc2nc1-c1ccc(F)cc1 [Compound 6F, 6-[[(6-fluoro-2,3-dihydro-1H-inden-1(R)-yl)amino]carbonyl]-2-(4-fluorophenyl)-1,8-naphthyridine-3-pentanoic acid]"
4,7.70 to 8.68,"O=C(O)CCCCc1cc2cc(C(=O)N[C@@H]3CCCc4cc(Cl)ccc43)cnc2nc1-c1ccc(F)cc1 [Compound 6G, 6-[[(6-chloro-1,2,3,4-tetrahydro-1(R)-naphthalenyl)amino)carbonyl]-2-(4-fluorophenyl)-1,8-naphthyridine-3-pentanoic acid]"
5,6.70 to 7.70,"O=C(O)CCCCc1cc2cc(C(=O)N[C@@H]3CCCc4ccc(F)cc43)cnc2nc1-c1ccc(F)cc1 [Compound 6H, 2-(4-fluorophenyl)-6-[[(7-fluoro-1,2,3,4-tetrahydro-1(R)-naphthalenyl)amino]carbonyl]-1,8-naphthyridine-3-pentanoic acid]"
6,6.70 to 7.70,"C[C@H](NC(=O)c1cnc2nc(-c3ccc(F)cc3)c(CCCCC(=O)O)cc2c1)c1ccc(Cl)cc1 [Compound 6J, 6-[[[1(S)-(4-chlorophenyl)ethyl]amino]carbonyl]-2-(4-fluorophenyl)-1,8-naphthyridine-3-pentanoic acid]"
7,6.70 to 7.70,"C[C@H](NC(=O)c1cnc2nc(-c3ccc(F)cc3)c(CCCCC(=O)O)cc2c1)c1ccc(F)cc1 [Compound 6K, 2-(4-fluorophenyl)-6-[[[1(S)-(4-fluorophenyl)ethyl]amino]carbonyl]-1,8-naphthyridine-3-pentanoic acid]"
8,7.70 to 8.68,"O=C(O)CCCCc1cc2cc(C(=O)N[C@H]3CCc4cc(Cl)ccc43)cnc2nc1-c1ccc(F)cc1 [Compound 6L, 6-[[(5-chloro-2,3-dihydro-1H-inden-1(S)-yl)amino]carbonyl]-2-(4-fluorophenyl)-1,8-naphthyridine-3-pentanoic acid]"
9,6.70 to 7.70,"O=C(O)CCCCc1cc2cc(C(=O)N[C@H]3CCc4ccc(F)cc43)cnc2nc1-c1ccc(F)cc1 [Compound 6M, 6-[[(6-fluoro-2,3-dihydro-1H-inden-1(S)-yl)amino]carbonyl]-2-(4-fluorophenyl)-1,8-naphthyridine-3-pentanoic acid]"
10,6.70 to 7.70,"O=C(O)CCCCc1cc2cc(C(=O)N[C@H]3CCCc4cc(Cl)ccc43)cnc2nc1-c1ccc(F)cc1 [Compound 6N, 6-[[(6-chloro-1,2,3,4-tetrahydro-1(S)-naphthalenyl)amino]carbonyl]-2-(4-fluorophenyl)-1,8-naphthyridine-3-pentanoic acid]"
11,6.70 to 7.70,"COc1ccc([C@H](NC(=O)c2cnc3nc(-c4ccc(F)cc4)c(CCCCC(=O)O)cc3c2)C(F)(F)F)cc1 [Compound 6P, 2-(4-fluorophenyl)-6-[[[2,2,2-trifluoro-1(S)-(4-methoxyphenyl)ethyl]amino]carbonyl]-1,8-naphthyridine-3-pentanoic acid]"
12,7.70 to 8.68,"O=C(O)CCCCc1cc2cc(C(=O)N[C@H](c3cc(Cl)cc(Cl)c3)C(F)(F)F)cnc2nc1-c1ccc(F)cc1 [Compound 6Q, 6-[[[1(R)-(3,5-dichlorophenyl)-2,2,2-trifluoroethyl]amino]carbonyl]-2-(4-fluorophenyl)-1,8-naphthyridine-3-pentanoic acid]"
13,7.70 to 8.68,"O=C(O)CCCCc1cc2cc(C(=O)N[C@@H](c3cc(Cl)cc(Cl)c3)C(F)(F)F)cnc2nc1-c1ccc(F)cc1 [Compound 6R, 6-[[[1(S)-(3,5-dichlorophenyl)-2,2,2-trifluoroethyl]amino]carbonyl]-2-(4-fluorophenyl)-1,8-naphthyridine-3-pentanoic acid]"
14,6.70 to 7.70,"COc1ccc([C@@H](NC(=O)c2cnc3nc(-c4ccc(F)cc4)c(CCCCC(=O)O)cc3c2)C(F)(F)F)cc1 [Compound 6i, 2-(4-fluorophenyl)-6-[[[2,2,2-trifluoro-1(R)-(4-methoxyphenyl)ethyl]amino]carbonyl]-1,8-naphthyridine-3-pentanoic acid]"
15,6.70 to 7.70,"O=C(O)CCCCc1cc2cc(C(=O)N[C@H]3CCCc4ccc(F)cc43)cnc2nc1-c1ccc(F)cc1 [Compound 6o, 2-(4-fluorophenyl)-6-[[(7-fluoro-1,2,3,4-tetrahydro-1(S)-naphthalenyl)amino]carbonyl]-1,8-naphthyridine-3-pentanoic acid]"

# Same assay, conditions: values in text
row,SMILES,pKi
1,"C[C@@H](NC(=O)c1ccc2nc(-c3ccc(F)cc3)c(CCCCC(=O)O)cc2c1)c1cc(Cl)cc(Cl)c1 [Compound 5X, 6-[[[1(R)-(3,5-dichlorophenyl)ethyl]amino]carbonyl]-2-(4-fluorophenyl)-3-quinolinepentanoic acid]",8.27
2,"O=C(O)CCCCc1cc2cc(C(=O)N[C@@H]3CCc4cc(Cl)ccc43)ccc2nc1-c1ccc(F)cc1 [Compound 5o, 6-[[(5-chloro-2,3-dihydro-1H-inden-1(R)-yl)amino]carbonyl)-2-(4-fluorophenyl)-3-quinolinepentanoic acid]",8.57

# Next, values leading:
row,pKi,SMILES
1,8.20,"O=C(O)CCCCc1cc2cc(C(=O)N[C@@H]3CCCc4cc(Cl)ccc43)cnc2nc1-c1ccc(F)cc1 [Compound 6G, 6-[[(6-chloro-1,2,3,4-tetrahydro-1(R)-naphthalenyl)amino)carbonyl]-2-(4-fluorophenyl)-1,8-naphthyridine-3-pentanoic acid]"
2,6.79,"O=C(O)CCCCc1cc2cc(C(=O)N[C@@H]3CCCc4ccc(F)cc43)cnc2nc1-c1ccc(F)cc1 [Compound 6H, 2-(4-fluorophenyl)-6-[[(7-fluoro-1,2,3,4-tetrahydro-1(R)-naphthalenyl)amino]carbonyl]-1,8-naphthyridine-3-pentanoic acid]"
